Data reported in patent US7879846B2, “Serine hydrolase inhibitors” (Kyorin Pharmaceutical Co.., Ltd., priority 2006, dated 2011).

Molecular target: T1, Human sputum neutrophil elastase (Homo sapiens, UniProt P08246)
T1 construct: purchased Elastin Products Co; host or cells: human sputum (natural source)
T1 sequence (P08246 30-247 limits assumed): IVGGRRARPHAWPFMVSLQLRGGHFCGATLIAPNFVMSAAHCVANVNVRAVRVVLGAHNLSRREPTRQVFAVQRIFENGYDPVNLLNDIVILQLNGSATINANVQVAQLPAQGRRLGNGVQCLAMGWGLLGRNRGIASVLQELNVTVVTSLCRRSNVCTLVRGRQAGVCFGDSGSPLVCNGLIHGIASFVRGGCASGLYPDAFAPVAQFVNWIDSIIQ
Test: Inhibitor IC50 against human neutrophil elastase (fluorogenic MeOSuc-AAPV-AMC substrate)
Format: biochemical
Conditions: 20 min preincubation, read-out: HNE IC50
Method: Determination of Inhibitor IC50 Values Against Human Neutrophil Elastase
Human sputum neutrophil elastase (Elastin Products Co.) was diluted into Assay Buffer A (200 mM Tris pH 7.4, 1 mg/ml BSA) to a working concentration of 0.55 U/ml. […] DMSO alone was used as the negative control. MeOSuc-AAPV-AMC (Bachem) substrate was dissolved in DMSO to 20 mM and further diluted to 1 mM in Assay Buffer A immediately before use. Substrate was added to the elastase assay at a final concentration of 1×10^−4 M. The reaction was allowed to proceed for 20 minutes at room temperature and then quenched with acetic acid at a final concentration of 3% (v/v). […] Fluorescence intensity versus inhibitor concentration was plotted and fit to the Hill equation to quantify IC50 values.

Row | Compound | IC50
1 | COc1cc(C(C)C)c2c(=O)oc(-c3cnn(C)c3N(C)CCN(C)C)nc2c1 [Compound 124] | > 150 nM
2 | COc1cc(C(C)C)c2c(=O)oc(-c3cnn(C)c3N3CCN(CCN(C)C)CC3)nc2c1 [Compound 125] | > 150 nM
3 | COc1cc(C(C)C)c2c(=O)oc(-c3cnn(C)c3N3CC[C@H](N(C)C)C3)nc2c1 [Compound 126] | > 150 nM
4 | COc1cc(C(C)C)c2c(=O)oc(-c3cnn(C)c3N3CCC(N(C)C)C3)nc2c1 (centres unmarked) [Compound 127] | > 150 nM
5 | COc1cc(C(C)C)c2c(=O)oc(-c3cccnc3N3CC[N+](C)(CC(N)=O)CC3)nc2c1 [Compound 129] | 61 to 150 nM
6 | COc1cc(C(C)C)c2c(=O)oc(-c3cccnc3N3CC[N+](C)(C)CC3)nc2c1 [Compound 130] | 61 to 150 nM
7 | CCc1cc(OC)cc2nc(-c3cccnc3N3CC[C@@H](N(C)C)C3)oc(=O)c12 [Compound 131] | < 15 nM
8 | CCc1cc(OC)cc2nc(-c3cccnc3N(C)C3CCN(C)C3)oc(=O)c12 (centres unmarked) [Compound 138] | 16 to 60 nM
9 | COc1cc(C2CC2)c2c(=O)oc(-c3cccnc3N3CCCN(C)CC3)nc2c1 [Compound 140] | 61 to 150 nM
10 | CCc1cc(N(C)C)cc2nc(-c3cccnc3N(C)C3CCN(C)C3)oc(=O)c12 (centres unmarked) [Compound 144] | > 150 nM
11 | CCCc1cc(OC)cc2nc(-c3cccnc3N(C)C3CCN(C)C3)oc(=O)c12 (centres unmarked) [Compound 146] | > 150 nM
12 | CCCc1cc(OC)cc2nc(-c3cccnc3N3CCN(CCN4CCOCC4)CC3)oc(=O)c12 [Compound 147] | 61 to 150 nM
13 | CCCc1cc(OC)cc2nc(-c3cccnc3N3CC[C@H](N(C)C)C3)oc(=O)c12 [Compound 148] | 16 to 60 nM
14 | CCCc1cc(OC)cc2nc(-c3cccnc3N3CC[C@@H](N(C)C)C3)oc(=O)c12 [Compound 149] | 61 to 150 nM
15 | CCCc1cc(OC)cc2nc(-c3cccnc3N3CCN(CCOC)CC3)oc(=O)c12 [Compound 150] | 61 to 150 nM
16 | CCCc1cc(OC)cc2nc(-c3cccnc3N(C)CCN(C)C)oc(=O)c12 [Compound 151] | 16 to 60 nM
17 | CCc1cccc2nc(-c3cccnc3N3CCN(CCN4CCOCC4)CC3)oc(=O)c12 [Compound 152] | < 15 nM
18 | CCc1cccc2nc(-c3cccnc3N(C)C3CCN(C)C3)oc(=O)c12 (centres unmarked) [Compound 153] | 16 to 60 nM
19 | CCc1cccc2nc(-c3cccnc3N(C)CCN(C)C)oc(=O)c12 [Compound 154] | < 15 nM
20 | CCCc1cc(OC)cc2nc(-c3cccnc3N3CCCN(C)CC3)oc(=O)c12 [Compound 156] | 61 to 150 nM
21 | CCCc1cc(OC)cc2nc(-c3cccnc3N3CCN(CC4CC4)CC3)oc(=O)c12 [Compound 157] | 61 to 150 nM
22 | CCCc1cc(OC)cc2nc(-c3cccnc3N3CCN(CCN(C)C)CC3)oc(=O)c12 [Compound 158] | 16 to 60 nM
23 | CCc1cccc2nc(-c3cccnc3N3CCN(CCN(C)C)CC3)oc(=O)c12 [Compound 162] | < 15 nM
24 | CCCc1cc(OC)cc2nc(-c3cccnc3N3CCC(C(=O)C[S+](C)[O-])CC3)oc(=O)c12 (centres unmarked) [Compound 163] | 61 to 150 nM
25 | COc1cc(C2CC2)c2c(=O)oc(-c3cccnc3N3CC[C@@H](N(C)C)C3)nc2c1 [Compound 164] | 61 to 150 nM

Row | Compound | IC50
26 | COc1cc(C2CC2)c2c(=O)oc(-c3cccnc3N3CC[C@H](N(C)C)C3)nc2c1 [Compound 165] | 61 to 150 nM
27 | COc1cc(C2CC2)c2c(=O)oc(-c3cccnc3N3CCN(CC4CC4)CC3)nc2c1 [Compound 166] | 61 to 150 nM
28 | COCCN1CCN(c2ncccc2-c2nc3cc(OC)cc(C4CC4)c3c(=O)o2)CC1 [Compound 167] | 61 to 150 nM
29 | COc1cc(C2CC2)c2c(=O)oc(-c3cccnc3N3CCN(CCN4CCOCC4)CC3)nc2c1 [Compound 168] | 61 to 150 nM
30 | COc1cc(C2CC2)c2c(=O)oc(-c3cccnc3N3CCN(CCN(C)C)CC3)nc2c1 [Compound 170] | 61 to 150 nM
31 | COc1cc(C2CC2)c2c(=O)oc(-c3cccnc3N(C)CCN(C)C)nc2c1 [Compound 172] | 61 to 150 nM
32 | COc1cc(C2CCC2)c2c(=O)oc(-c3cccnc3N3CCC[C@H](C(=O)O)C3)nc2c1 [Compound 174] | > 150 nM
33 | COc1cc(C2CCC2)c2c(=O)oc(-c3cccnc3N3CC[C@@H](N(C)C)C3)nc2c1 [Compound 175] | > 150 nM
34 | COc1cc(C2CCC2)c2c(=O)oc(-c3cccnc3N3CC[C@H](N(C)C)C3)nc2c1 [Compound 176] | 61 to 150 nM
35 | Cc1cccc2nc(-c3cccnc3N3CC[C@H](N(C)C)C3)oc(=O)c12 [Compound 177] | 16 to 60 nM
36 | Cc1cccc2nc(-c3cccnc3N3CC[C@@H](N(C)C)C3)oc(=O)c12 [Compound 178] | 16 to 60 nM
37 | Cc1cccc2nc(-c3cccnc3N3CCN(CCN4CCOCC4)CC3)oc(=O)c12 [Compound 179] | 16 to 60 nM
38 | Cc1cccc2nc(-c3cccnc3N3CCN(CCN(C)C)CC3)oc(=O)c12 [Compound 180] | 16 to 60 nM
39 | COc1cc(C2CCC2)c2c(=O)oc(-c3cccnc3N3CCN(CCN(C)C)CC3)nc2c1 [Compound 186] | 61 to 150 nM
40 | COc1cc(C2CCC2)c2c(=O)oc(-c3cccnc3N3CCN(CCN4CCOCC4)CC3)nc2c1 [Compound 187] | > 150 nM
41 | COc1cc(C2CCC2)c2c(=O)oc(-c3cccnc3N(C)CCN(C)C)nc2c1 [Compound 188] | 16 to 60 nM
42 | CCc1cc(OC)cc2nc(-c3cccnc3N3CCC(N(CC)CC)C3)oc(=O)c12 (centres unmarked) [Compound 189] | < 15 nM
43 | CCc1cc(OC)cc2nc(-c3cccnc3N3CCN(CC4OCCO4)CC3)oc(=O)c12 [Compound 191] | < 15 nM
44 | C=CCN1CCN(c2ncccc2-c2nc3cc(OC)cc(CC)c3c(=O)o2)CC1 [Compound 193] | < 15 nM
45 | CCc1cc(OC)cc2nc(-c3cccnc3N3CCCN(C)CC3)oc(=O)c12 [Compound 195] | < 15 nM
46 | CCOC(=O)CN1CCN(c2ncccc2-c2nc3cc(OC)cc(CC)c3c(=O)o2)CC1 [Compound 196] | < 15 nM
47 | CCc1cc(OC)cc2nc(-c3cccnc3N3CCN(CC(=O)N4CCOCC4)CC3)oc(=O)c12 [Compound 197] | < 15 nM
48 | CCc1cc(OC)cc2nc(-c3cccnc3N3CCN(C(C)C)CC3)oc(=O)c12 [Compound 201] | 16 to 60 nM
49 | CCc1cc(OC)cc2nc(-c3cccnc3N3CCN(CCNC(=O)OC(C)(C)C)CC3)oc(=O)c12 [Compound 202] | 16 to 60 nM
50 | CCOCCN1CCN(c2ncccc2-c2nc3cc(OC)cc(CC)c3c(=O)o2)CC1 [Compound 203] | < 15 nM

Row | Compound | IC50
51 | CCc1cc(OC)cc2nc(-c3ccnc(N4CCN(C)CC4)c3)oc(=O)c12 [Compound 205] | > 150 nM
52 | CCc1cc(OC)cc2nc(-c3cccc(N4CCN(C)CC4)n3)oc(=O)c12 [Compound 206] | 16 to 60 nM
53 | CCc1cc(OC)cc2nc(-c3ccc(N4CCN(C)CC4)nc3)oc(=O)c12 [Compound 207] | 16 to 60 nM
54 | CCc1cc(OC)cc2nc(-c3cccnc3N3CCC(S(=O)(=O)O)CC3)oc(=O)c12 [Compound 209] | 16 to 60 nM
55 | CCc1cc(OC)cc2nc(-c3cccnc3N3CCN(CCOCCO)CC3)oc(=O)c12 [Compound 210] | 16 to 60 nM
56 | CCc1cc(OC)cc2nc(-c3cccnc3N3CCCC(N(C)C)C3)oc(=O)c12 (centres unmarked) [Compound 212] | 16 to 60 nM
57 | CCc1cc(OC)cc2nc(-c3cccnc3N3CCN(CCC(=O)O)CC3)oc(=O)c12 [Compound 213] | < 15 nM
58 | CCc1cc(OC)cc2nc(-c3cccnc3N3CCC(O)CC3)oc(=O)c12 [Compound 214] | < 15 nM
59 | CCc1cc(OC)cc2nc(-c3cccnc3N3CCC(N4CCCC4)CC3)oc(=O)c12 [Compound 215] | < 15 nM
60 | CCc1cc(OC)cc2nc(-c3cccnc3N3CCC(N4CCCCC4)CC3)oc(=O)c12 [Compound 216] | < 15 nM
61 | C=CCN1C[C@@H](C)N(c2ncccc2-c2nc3cc(OC)cc(CC)c3c(=O)o2)C[C@H]1C [Compound 217] | < 15 nM
62 | CCc1cc(OC)cc2nc(-c3cccnc3N3CCN(CC4CCCO4)CC3)oc(=O)c12 (centres unmarked) [Compound 218] | < 15 nM
63 | CCc1cc(OC)cc2nc(-c3cccnc3N3CCN(CCCC#N)CC3)oc(=O)c12 [Compound 219] | 16 to 60 nM
64 | CCc1cc(OC)cc2nc(-c3cccnc3N3CCC(N(C)C)CC3)oc(=O)c12 [Compound 220] | 16 to 60 nM
65 | CCOC(=O)CCN1CCN(c2ncccc2-c2nc3cc(OC)cc(CC)c3c(=O)o2)CC1 [Compound 221] | 16 to 60 nM
66 | CCCN1CCN(c2ncccc2-c2nc3cc(OC)cc(CC)c3c(=O)o2)CC1 [Compound 222] | 16 to 60 nM
67 | CCc1cc(OC)cc2nc(-c3cccnc3N3CCN(c4ccccc4)CC3)oc(=O)c12 [Compound 223] | 61 to 150 nM
68 | CCc1cc(OC)cc2nc(-c3cccnc3N3CCC(Cc4ccccc4)CC3)oc(=O)c12 [Compound 224] | 61 to 150 nM
69 | CCc1cc(OC)cc2nc(-c3cccnc3N3CCC(CCCC(=O)O)CC3)oc(=O)c12 [Compound 225] | 16 to 60 nM
70 | CCc1cc(OC)cc2nc(-c3cccnc3N3CCCCC3)oc(=O)c12 [Compound 226] | 16 to 60 nM
71 | C#CCOC(=O)NCCN1CCN(c2ncccc2-c2nc3cc(OC)cc(CC)c3c(=O)o2)CC1 [Compound 227] | 16 to 60 nM
72 | C#CCCN1CCN(c2ncccc2-c2nc3cc(OC)cc(CC)c3c(=O)o2)CC1 [Compound 228] | < 15 nM
73 | CCc1cc(OC)cc2nc(-c3cccnc3N3CC[N+](C)(C)CC3)oc(=O)c12 [Compound 229] | < 15 nM
74 | CCc1cc(OC)cc2nc(-c3cccnc3N3CC[N+](C)(CCOC)CC3)oc(=O)c12 [Compound 230] | < 15 nM
